Test results published in publication PMC4502414, “Transforming berberine into its intestine-absorbable form by the gut microbiota” (Scientific Reports, 2015).
Entries after “also recorded” stand apart in the source; their conditions may differ.

Columns and labels:
nitroreductase = target: T1, nitroreductase (Escherichia coli, UniProt P38489); test: Nitroreductase-mediated BBR reduction, cell-free incubation; assay type: biochemical; conditions: BBR with nitroreductase, 37 °C
T1 construct: purchased Sigma-Aldrich Co. (Shanghai, China); host or cells: Escherichia coli
T1 sequence (P38489 whole entry): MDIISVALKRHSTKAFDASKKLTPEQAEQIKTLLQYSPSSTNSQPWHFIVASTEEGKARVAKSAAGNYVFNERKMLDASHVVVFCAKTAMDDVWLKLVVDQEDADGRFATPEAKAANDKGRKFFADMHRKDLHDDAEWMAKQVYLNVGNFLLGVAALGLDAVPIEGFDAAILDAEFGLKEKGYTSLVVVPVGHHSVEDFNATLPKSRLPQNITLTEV
Description: BBR was incubated with nitroreductase in intestinal bacteria cultures. The reaction mixture consisted of BBR (50 μg/ml), an NADPH-regenerating system and nitroreductase (5 μg/ml) in a final volume of 1 ml under the protection of N2. After incubation for 0, 2, 4, 6 and 12 h at 37 °C, the reaction was terminated by the addition of 1 ml of ice-cold acetonitrile. The samples were then extracted with 1 ml of ethyl acetate after adding 1 ml of 0.5 M sodium hydroxide solution. The organic phase was evaporated to dryness under a nitrogen flow in a water bath at 40 °C. The residue was dissolved with 200 μl of the mobile phase for further analysis. 2-Iodosobenzoic acid (2-IBA), a specific inhibitor of nitroreductase, was used to verify the role of bacterial nitroreductase.

[1] = tested on: rat small intestinal bacteria (RSIB); test: Conversion of BBR into dhBBR by rat small intestinal bacteria in vitro; assay type: in vitro ADME; conditions: BBR incubated with rat small intestine bacteria
Description: The small intestine contents from ten sacrificed SD rats were obtained and mixed with anaerobic medium to prepare the cultures. BBR was added into the incubation at final concentrations of 100, 50, and 10 μg/ml, and the reaction was continued for 6, 12 or 24 h. Levels of BBR, dhBBR and other BBR metabolites were determinedusing the LC-MS/MS 8040 and GC-MS instruments according to the above-mentioned method.

MAO-B = target: T2, MAO-B (Rattus norvegicus, UniProt P19643); conditions: intestinal homogenate, 30 min, no inhibitor
T2 sequence (P19643 1-520): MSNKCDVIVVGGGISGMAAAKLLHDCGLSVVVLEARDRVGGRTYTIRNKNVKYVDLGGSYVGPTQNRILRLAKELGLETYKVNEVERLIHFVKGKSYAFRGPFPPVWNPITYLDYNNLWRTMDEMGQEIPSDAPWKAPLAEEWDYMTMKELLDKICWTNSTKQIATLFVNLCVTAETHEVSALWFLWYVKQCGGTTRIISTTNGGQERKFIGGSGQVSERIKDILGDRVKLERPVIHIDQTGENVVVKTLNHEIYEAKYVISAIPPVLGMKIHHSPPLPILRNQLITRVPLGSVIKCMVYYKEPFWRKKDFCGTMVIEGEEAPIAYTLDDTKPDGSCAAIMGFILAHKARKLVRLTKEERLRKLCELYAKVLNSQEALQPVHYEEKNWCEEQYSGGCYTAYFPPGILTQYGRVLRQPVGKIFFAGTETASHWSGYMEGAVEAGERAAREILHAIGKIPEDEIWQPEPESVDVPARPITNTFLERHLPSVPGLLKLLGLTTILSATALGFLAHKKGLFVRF
Description: The reaction system consisted of dhBBR (100 μM), MAO-B (0.2 mg/ml) and phosphate-buffered saline (PBS, pH = 7.4) in a final volume of 200 μl. The MAO-B was pre-incubated via centrifugation at 850 rpm at 37 °C for 5 min, and this step was followed by the addition of dhBBR. The reaction was terminated after 30 min by adding an equal volume of ice-cold acetonitrile and centrifuging at 14,000 g for 5 min. Ten microliters of the supernatant was injected into the HPLC instrument for analysis.

LDLR = test: Drug effect on hepatic LDLR gene expression in HepG2 cells; assay type: cell-based, human; conditions: 12 h
Description: The HepG2 human hepatoma cell line was obtained from the American Tissue Culture Collection (ATCC, USA) and grown in Eagle’s Minimum Essential Medium (GIBCO) supplemented with 10% fetal bovine serum (GIBCO) at 37 °C. For the drug efficacy test, HepG2 cells were cultured for 24 h and then treated with BBR or dhBBR for 12 h. The compounds were freshly prepared in medium prior to use.
The total cellular RNAs were isolated with the SV Total RNA Isolation System (Promega, Madison, WI, USA) following the vendor’s instructions. The total RNAs were reversely transcribed into cDNAs, and quantitative real-time PCR was performed using a 2-Step RT-qPCR System (Promega, Madison, WI, USA), with GAPDH as an internal control. The normalized LDLR mRNA expression levels were plotted as fold levels compared with the untreated control. The following primers were used: LDLR forward, […]; LDLR reverse, […]; GAPDH forward, […]; and GAPDH reverse, […].

[2] = Distribution of dhBBR in organs of SD rats orally treated with BBR; assay type: in vivo; conditions: 24 h after oral BBR 200 mg/kg
Description: Three segments of small intestine (duodenum, jejunum and ileum) were collected 0, 6, 12, 24, 36, and 48 h after the oral administration of BBR in SD rats. The small intestine tissues were washed thoroughly with saline and dried. After being weighed, the samples were homogenized with mixed solution (ethanol: water, 1:1) at a ratio of 1:2 [w(g)/v(ml)]. The samples were centrifuged at 7,500 g for 10 min, and the supernatant was collected and evaporated to dryness in a water bath at 40 °C using a rotary evaporator. The residues of the tissue extraction were dissolved in methanol (250 μl) and vortex-mixed for 5 min. The tissue solution was then centrifuged (at 14,000 g for 5 min), and the supernatant was passed through a 0.22-μm filter. An aliquot of 1 μl of the supernatant was injected into the GC-MS instrument, and a 10-μl aliquot was used for LC-MS/MS analysis. The level of dhBBR was calculated based on the standard curve, and BBR and other metabolites was quantified using the method described above.

[3] = Effect of heat inactivation and vitamin C on dhBBR-to-BBR transformation in rat small intestine homogenate; assay type: in vitro ADME; conditions: homogenate boiled for 2 min
Description: The rats (n = 3) were sacrificed to obtain fresh small intestine homogenate. The homogenate was then boiled for 2 min to inactivate all of the enzymes. After pre-incubation at 37 °C for 2 min, 5 μl of dhBBR (10 mM, dissolved in DMSO) was added into the inactivated homogenate, and fresh homogenate (active one) was used as a reference. The sample was mixed thoroughly and centrifuged at 16,000 g for 5 min. The supernatant was transferred into new tubes, treated with 500 μl of acetonitrile, and then centrifuged. Twenty-microliter aliquots were used for the HPLC analysis.
To examine the oxidative reaction, 100 μl of vitamin C was pre-incubated with the inactivated homogenate; the final concentrations of vitamin C were 95, 9.5 and 0.95 mM. The superoxide anion in the sample was detected with an O2^− ELISA kit (Beijing Biolab Co., Ltd., Beijing, China; lot: 201404) following the manufacturer’s instructions.

## COc1ccc2c(c1OC)CN1CCc3cc4c(cc3C1=C2)OCO4 [dhBBR, dihydroberberine]
nitroreductase
  incubation time after which dhBBR became detectable: 4 h
[1]
  incubation time until dhBBR became detectable: ≤ 6 h
MAO-B
  dhBBR-to-BBR reversion: complete
LDLR
  up-regulation of LDLR mRNA expression compared with BBR: Reduced effect; also recorded: much lower than that of BBR
[2]
  organs in which dhBBR was detected: detected in intestinal tissue only
[3]
  effect of heat inactivation of homogenate on dhBBR-to-BBR reversion: did not reduce the dhBBR-to-BBR reversion
